Measurements: US7566737B2 (Genfit, priority 2002, dated 2009)

Tests used:
[1] = system: Human THP-1 monocytes differentiated in macrophages; experiment: Anti-inflammatory properties: cytokine secretion by LPS-stimulated macrophages; assay type: cell-based; settings: pre-treated 24 hours, LPS 6 hours, vs non-treated cells
Experimental: TNF-α (tumor necrosis factor alpha) and IL-6 (interleukin-6) are two important markers of the inflammatory response to stress. The anti-inflammatory property of the compound 29 was evaluated as follows:
Human THP-1 monocytes were differentiated in macrophages by a 72 h incubation with 30 ng/ml of PMA (Phorbol Myristate Acetate). Differentiated macrophages were then treated with the inventive compound 29 at different concentrations during 24 h in culture medium without serum. Stimulation with LPS 1 μg/ml was finally performed during 6 hours (LPS bacterial endotoxin (Escherichia coli 0111 :B4) (Sigma, France) was reconstituted in distilled water).
TNF-α and IL-6 secretion were quantified in the culture medium of LPS-stimulated cells with TNF-α and IL6 ELISA kits (Immunotech, France).

[2] = system: Human normal primary fibroblasts; experiment: Antioxidant properties on cell cultures (carboxy-H2DCFDA fluorescence, AAPH stress), fibroblasts; assay type: cell-based; settings: 25 μM for 24 h, AAPH 750 μM
Summary of the method: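 Cells were pretreated 24 h with compound at 25 μM, loaded 30 min at 37 °C with 25 μM carboxy-H2DCFDA, then stressed 30 min with 750 μM AAPH in phenol-red- and serum-free medium. ROS read as fluorescence ([…]); activity expressed as reduction in fluorescence signal.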

[3] = target: T1, human PPARα (Homo sapiens, UniProt Q07869); experiment: PPARα/Gal4 transactivation system; assay type: cell-based
T1 construct: expressed in transfected cells; host or cells: RK13 or COS-7
T1 sequence (Q07869 239-466 limits assumed): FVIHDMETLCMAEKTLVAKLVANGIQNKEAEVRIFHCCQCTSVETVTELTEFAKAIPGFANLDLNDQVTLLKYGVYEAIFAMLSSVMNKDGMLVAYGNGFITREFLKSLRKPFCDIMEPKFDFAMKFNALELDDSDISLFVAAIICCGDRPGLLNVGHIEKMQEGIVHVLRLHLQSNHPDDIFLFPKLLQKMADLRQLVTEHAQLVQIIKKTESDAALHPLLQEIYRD
Summary of the method: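 Gal4-DBD fused to human PPAR ligand-binding (DEF) domain with Gal4-responsive luciferase reporter, in transfected RK13 or COS-7 cells. RK13: compounds at 10, 30, 100 μM or 1, 10, 100 μM for 24 h, dual-luciferase read, normalised to protein; COS-7: 24 h activation at 37° C in serum-free medium, luciferase read-out.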

[4] = system: C57BLKS-m Lepr^db transgenic mice; experiment: Antidiabetic effect on insulin and glucose; assay type: in vivo, mouse; settings: 0.1 to 100 mg/Kg/day for 28 days
Experimental: Genetically modified C57BLKS-m Lepr^db mice were used to asses antidiabetic effect of the inventive compounds. Mice were randomized according to their plasma lipid, glucose and insulin contents. Treatments were administered once daily by gavage (10 ml/kg) for the duration of the treatment. For oral administrations, the drugs were suspended in CMC 1% or CMC 1%+Tween 80 0.1%. The plasma glucose was measured using a kit reagent from Biomerieux (France). The plasma insulin was measured using a solid phase two-site enzyme immunoassay from Crystal Chem Inc. (USA). The results are exemplified in FIGS. 5-1 to 5-4 which illustrate the activity of inventive compounds 29 and 62 on glucose and insulin.

## CSc1ccc(C(=O)/C=C/c2cc(C)c(OC(C)(C)C(=O)O)c(C)c2)cc1 [Compound 29, 1-[4-methylthiophenyl]-3-[3,5-dimethyl-4-carboxydimethylmethyloxyphenyl]prop-2-en-1-one]
[1]; 0.1, 1 and 10 μM
  IL-6 secretion: decrease
[1]; 1 and 10 μM
  TNF-α secretion: decrease
[2]
  antioxidant properties on cell cultures (in words): antioxidant properties
[3]; 1 μM
  induction factor (luminescent signal relative to untreated cells): 28
[3]; 10 μM
  induction factor (luminescent signal relative to untreated cells): 25
[4]
  plasma glucose level: decrease
  plasma insulin level: decrease

## Cc1cc(/C=C/C(=O)c2ccc(Br)cc2)cc(C)c1OC(C)(C)C(=O)O [Compound 41, 1-[4-bromophenyl]-3-[3,5-dimethyl-4-carboxydimethylmethyloxyphenyl]prop-2-en-1-one]
[2]
  antioxidant properties on cell cultures (in words): antioxidant properties
[3]; at the 10 or 1 μm concentrations
  maximum induction factor: 34
